# In article PMC6128263 (Biochemistry, 2018):
# Like-named read-outs stand apart in the source and are kept apart here.
# Assays:
# [1] = biological target: T1, Mtb Rv3802 (Mycobacterium tuberculosis, UniProt O53581); format: biochemical; conditions: 100 μM inhibitor, no preincubation time
# [2] = biological target: T1, Mtb Rv3802; test: biochemical; format: biochemical
# [3] = biological target: T2, Mtb Pks13-TE (Mycobacterium tuberculosis, UniProt I6X8D2); test: Initial inhibition screen, Pks13-TE activity assay; format: biochemical
# [4] = biological target: T3, Mtb Ag85C (Mycobacterium tuberculosis, UniProt P9WQN9); test: Initial inhibition screen, Ag85C activity assay; format: biochemical; conditions: for inhibition level of Ag85C: 100 μM inhibitor, 0 min preincubation, compared to the uninhibited control
# [5] = biological target: T3, Mtb Ag85C; test: Ag85C kinact/KI determination; format: biochemical
# [6] = biological target: T2, Mtb Pks13-TE; test: Pks13-TE reversible covalent inhibition and influence of trehalose; format: biochemical
# [7] = tested on: Mtb strain H37Rv; conditions: cited from earlier work
# [8] = tested on: Rv3802; conditions: THL to Rv3802, cited from earlier work
# [9] = tested on: OC[C@H]1O[C@H](O[C@H]2O[C@H](CO)[C@@H](O)[C@H](O)[C@H]2O)[C@H](O)[C@@H](O)[C@@H]1O; test: purified protein, by the assay type; conditions: other: Pks13-TE, acyl transfer from 4MH to trehalose; pH 7.5; 37.0 °C
# [10] = 20 nM Rv3802, linear rates from 2 to 6 min, no preincubation
# [11] = read-out: increase in inhibition level of Pks13-TE from 0 to 3 h
# [12] = read-out: inhibition level of Pks13-TE at 4 h (decreased to)
# T1 sequence (O53581 whole entry): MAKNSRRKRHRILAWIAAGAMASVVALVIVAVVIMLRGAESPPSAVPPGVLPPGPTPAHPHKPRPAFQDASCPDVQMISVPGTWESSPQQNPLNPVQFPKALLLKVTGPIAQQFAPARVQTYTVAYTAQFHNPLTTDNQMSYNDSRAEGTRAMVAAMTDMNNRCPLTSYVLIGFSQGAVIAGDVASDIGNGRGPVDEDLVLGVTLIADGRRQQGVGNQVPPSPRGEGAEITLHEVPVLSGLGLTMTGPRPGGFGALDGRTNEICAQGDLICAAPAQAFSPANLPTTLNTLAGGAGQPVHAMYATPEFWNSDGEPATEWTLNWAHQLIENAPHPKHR
# T2 sequence (I6X8D2 1451-1733 limits assumed): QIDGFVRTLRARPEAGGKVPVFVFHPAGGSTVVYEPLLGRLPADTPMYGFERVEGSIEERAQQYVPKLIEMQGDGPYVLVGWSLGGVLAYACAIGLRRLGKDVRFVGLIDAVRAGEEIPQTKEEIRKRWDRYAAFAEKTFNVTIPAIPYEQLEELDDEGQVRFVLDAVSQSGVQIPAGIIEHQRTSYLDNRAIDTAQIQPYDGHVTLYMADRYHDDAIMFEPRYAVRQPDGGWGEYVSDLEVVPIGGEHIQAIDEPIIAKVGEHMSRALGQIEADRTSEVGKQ
# T3 sequence (P9WQN9 46-340): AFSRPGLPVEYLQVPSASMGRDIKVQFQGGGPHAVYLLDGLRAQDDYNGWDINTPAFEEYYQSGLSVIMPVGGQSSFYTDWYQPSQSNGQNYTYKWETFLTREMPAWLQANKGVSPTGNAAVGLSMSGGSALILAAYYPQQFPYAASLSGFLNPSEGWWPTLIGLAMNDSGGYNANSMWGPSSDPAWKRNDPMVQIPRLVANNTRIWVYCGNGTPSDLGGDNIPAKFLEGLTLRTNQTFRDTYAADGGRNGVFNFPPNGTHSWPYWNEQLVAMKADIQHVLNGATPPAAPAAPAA
compound,measurement,setting,value
"CCCCCCCCCCCC(CC1OC(=O)C1CCCCCC)OC(=O)C(CC(C)C)NC=O (single isomer, unassigned; ent1) [ent1-THL]",inhibition level of Rv3802,[1]; 100 µM,85.1 ± 1.4%
same,EC50,[2]; [10],15900 ± 1000 nM
"CCCCCCCCCCC[C@H](C[C@H]1OC(=O)[C@@H]1CCCCCC)OC(=O)[C@H](CC(C)C)NC=O (single isomer, unassigned; ent2) [ent2-THL]",inhibition level of Rv3802,[1],83.9 ± 0.6%
same,Pks13-TE activity remaining,"[3]; 100 μM inhibitor, 1 h preincubation, compared to uninhibited reactions",~ 30%
same,EC50,[2]; [10],15900 ± 1100 nM
"CCCCCCCCCCCC(CC1OC(=O)C1CCCCCC)OC(=O)C(CC(C)C)NC=O (single isomer, unassigned; ent3) [ent3-THL]",inhibition level of Rv3802,[1]; 100 µM,83.0 ± 2.9%
same,EC50,[2]; [10],16600 ± 900 nM
"CCCCCCCCCCCC(CC1OC(=O)C1CCCCCC)OC(=O)C(CC(C)C)NC=O (single isomer, unassigned; ent4) [ent4-THL]",inhibition level of Rv3802,[1]; 100 µM,79.0 ± 1.7%
same,EC50,[2]; [10],62100 ± 4100 nM
"CCCCCCCCCCC[C@H](C[C@@H]1OC(=O)[C@H]1CCCCCC)OC(=O)[C@@H](CC(C)C)NC=O [2′,5-epi-THL]",inhibition level of Rv3802,[1],completely inhibit
same,EC50,[2]; [10],28.7 ± 3.1 nM
CCCCCCCCCCC[C@@H](C[C@@H]1OC(=O)[C@H]1CCCCCC)OC(=O)[C@@H](CC(C)C)NC=O [2′-epi-THL],inhibition level of Ag85C,[4],35.8 ± 2.2%
same,inhibition level of Rv3802,[1],completely inhibit
same,fold lower binding affinity (KI) compared to THL,[5]; Ag85C,~ 4.5 fold
same,fold lower kinact/KI value compared to THL,[5]; Ag85C,~ 4 fold
same,kinact/KI,"[5]; Ag85C, inhibitor 300 to 12.5 μM, 40 min progress curves",1.1 ± 0.3 × 10^−3 μM^−1 min^−1
same,EC50,[2]; [10],9.2 ± 0.5 nM
CCCCCCCCCCC[C@H](C[C@@H]1OC(=O)[C@H]1CCCCCC)OC(=O)[C@H](CC(C)C)NC=O [5-epi-THL],inhibition level of Ag85C,[4],12.3 ± 2.6%
same,inhibition level of Rv3802,[1],completely inhibit
same,EC50,[2]; [10],12.6 ± 1.2 nM
"CCCCCCCCCCC[C@@H](C[C@@H]1OC(=O)[C@H]1CCCCCC)OC(=O)[C@H](CC(C)C)NC=O [THL, Tetrahydrolipstatin]",inhibition at 100 µM,[4]; read-out: inhibition level of Ag85C,31.8 ± 5.9%
same,inhibition level of Rv3802,[1],completely inhibit
same,inhibition at 100 µM,[3]; read-out: inhibition level of Pks13-TE,50 to 60%
same,kinact/KI,[5],70 M⁻¹ s⁻¹
same,EC50,[2],16.2 ± 0.8 nM
same,"retention of covalent coupling with THL, fold longer than Rv3802",[6]; Pks13-TE versus Rv3802,at least 10 fold
same,slowing of the rate of inactivation of Pks13-TE by presence of trehalose,[6]; THL inhibition with versus without trehalose,48 ± 6.7%
same,inhibition at 12.5 µM,[6]; [11],62.3 ± 5%
same,inhibition at 25 µM,[6]; [11],61.8 ± 3.5%
same,inhibition at 50 µM,[6]; [11],44.1 ± 3.5%
same,inhibition at 12.5 µM,[6]; [12],15.2 ± 1.4%
same,inhibition at 25 µM,[6]; [12],11.6 ± 0.4%
same,inhibition at 50 µM,[6]; [12],16 ± 2.1%
same,minimum inhibitory concentration (MIC),[7],~ 15 μM
same,IC50,[8],low micromolar
same,Ki,[8]; read-out: apparent KI,5 nM
Mtb Pks13-TE (Mycobacterium tuberculosis H37Rv),Km,[9],56.6 ± 7.9 mM
